Literature values in patent publication US7351421B2, “Drug-eluting stent having collagen drug carrier chemically treated with genipin” (priority 1996, dated 2008).
“Also recorded” adds a separate entry of the source. One block for each molecule: values may come before it.

Tests used:
CHO-K1 cells = conditions: in vitro
3T3 fibroblasts = conditions: in vitro
[1] = glutaraldehyde used to crosslink materials
intimal proliferation = conditions: de-endothelialized rabbits, in vivo
[2] = system: intimal proliferative lesion; conditions: in vivo
smooth muscle cell = conditions: in vitro

Molecule: COC(=O)C1=CO[C@@H](O)[C@@H]2C(CO)=CC[C@H]12 [Genipin]
- clastogenic response (genotoxicity) (CHO-K1 cells): does not cause clastogenic response
- cytotoxicity compared with glutaraldehyde (3T3 fibroblasts): substantially less cytotoxic; also recorded: significantly less cytotoxic
- LD50 i.v. (mice): 382 mg/k

- crosslinking concentration giving persistent foreign-body reaction [1]: above 0.05%
Molecule: O=CCCCC=O [glutaraldehyde]
- concentration at which cytotoxic (tissue culture): 10-25 ppm
- concentration at which cytotoxic in tissue culture (tissue culture; tissue culture, as low as): ≥ 3 ppm

Molecule: cyclosporin A
- reduction of intimal proliferation (intimal proliferation): no significant reduction
- effect on intimal proliferative lesion following arterial balloon catheterization [2]: inhibition
- effect on smooth muscle cell proliferation (smooth muscle cell): did not inhibit
